Measurements published in patent US20140179606A1, “LEFT VENTRICULAR DIASTOLIC FUNCTION IMPROVING AGENT” (priority 2011, published 2014).

Assays:
[1] = tested on: acute heart failure model; assay: Evaluation of hemodynamics in acute heart failure model; type: in vivo, beagle; conditions: for Peak Negative dP/dt Change Ratio (%): indication of left ventricular diastolic function, 60 minutes after administration; for Peak Negative dP/dt Change Ratio (%) / Systemic Vascular Resistance Change Ratio (%) / Peak Positive dP/dt Change Ratio (%) / Left Ventricular End-Diastolic Pressure Change Ratio (%): continuous iv; for Peak Negative dP/dt Change Ratio (%) / Peak Positive dP/dt Change Ratio (%): two increasing doses; for Systemic Vascular Resistance Change Ratio (%): indication of afterload; for Peak Positive dP/dt Change Ratio (%): indication of left ventricular systolic function; for Left Ventricular End-Diastolic Pressure Change Ratio (%): indication of preload
Method: The acute heart failure model was produced by the following method. A male beagle (the weight was more than 10 kg) was anesthetized with pentobarbital sodium (30 mg/kg, intravenous administration), and then a tracheal catheter was introduced to the trachea and connected to a ventilator. The frequency of breath of the ventilator was set to 15 strokes per minute; the amount of ventilation was set to 20 mL/kg per stroke, and the respiration was controlled by using a mixed gas (Air:O2=3:0.2 as an indication). The animal was fixed with the lateral position and the hair of the left chest area, left and right femoral areas and cervical region was cut. Pentobarbital sodium (5 mg/kg/hr) was intravenously administered continuously from right cephalic vein, and the anesthesia was continued. The chest was opened at the left fourth rib, and the ascending aorta origin was exfoliated. Lactated Ringer's solution was intravenously administered continuously from the catheter inserted to the left femoral vein (5 mL/min). Further, in order to prevent the arrhythmia from occurring, propranolol hydrochloride (0.3 mL/min) was administered continuously together with the volume overload (mixed with lactated Ringer's solution) until the completion of the experiment. The left anterior descending coronary artery (LAD) was ligated 30 minutes after the administration of lactated Ringer's solution. After the hemodynamics became stable, methoxamine hydrochloride was administered continuously from the left femoral vein. In order to increase the systemic vascular resistance and thus decrease the cardiac output, methoxamine hydrochloride was maintained at the volume of 5 to 10 μg/kg/min so that the cardiac output decreased by 20% or more in comparison with the cardiac output before the volume overload, and methoxamine hydrochloride was administered continuously until the completion of the experiment.
From the point, at which the cardiac output decreased by 20% or more after the initiation of the continuous administration of methoxamine hydrochloride in comparison with the cardiac output before the administration of lactated Ringer's solution and other hemodynamics became stable, physiological saline (0.3 mL/min) was administered from the right femoral vein for 30 minutes (preceding phase of administration). Then, the compound A, (11α,13E,15α)-9-oxo-11,15-dihydroxy-16-(3-methoxymethylphenyl)-17,18,19,20-tetranor-5-tiaprost-13-enoic acid methyl ester (the EP4 agonist described in Example 1 of WO2000/003980, abbreviated to […] below), and carperitide (atrial natriuretic peptide), nitroglycerin (a vasodilator), nicorandil (a vasodilator) and milrinone (a phosphodiesterase III inhibitor: a compound having a cardiac effect and a vasodilation effect), which are existing agents for treating heart failure, were each administered for 30 minutes with increasing the dose gradually from the right femoral vein at the doses in the following table. The administered groups (four examples each) and the doses are shown below.
The measurement of cardiac hemodynamics was conducted every 10 minutes both during the preceding phase of administration and during the continuous administration of each dose.
Through the catheter introducer inserted to the right femoral artery, a pig tale catheter was introduced and indwelled in the left ventricle and connected to a disposable blood pressure transducer, and the left ventricular pressure (LVP) was measured through an amplifier for the measurement. […]

normal dog = assay: Left ventricular action in a normal dog; type: in vivo
From the text: From the above results, it was considered that milrinone is not always appropriate for administering to a diastolic heart failure patient with normal systolic function because milrinone has a strong cardiotonic action, while the compound A selectively improves left ventricular diastolic function as compared with the effect to improve systolic function and thus is also effective for a diastolic heart failure patient with normal systolic function as well as a systolic heart failure patient in which both diastolic function and systolic function are impaired.

[2] = tested on: Dahl rat heart failure model; assay: Cardiac function and survival rate using Dahl rat (hypertensive / chronic heart failure model); type: in vivo; conditions: oral, two times a day for 90 days, compound A 300 μg/kg, milrinone 1000 μg/kg; for survival rate: FIG. 2; for left ventricular diastolic wall strain (DWS) index: FIG. 3
Method: A model of hypertensive heart failure, which is diastolic heart failure, was prepared by feeding solid feed for high salt load rat (corresponding to 8% salt) to 47-day-old male DIS/Eis rats (Dahl rats). Solid feed for normal feed rat (corresponding to 0.3% salt) was fed to a normal control group (10 examples).
The test compounds were orally administered repeatedly for 90 days two times a day with the dose of 5 mL/kg using a stomach tube to 13-week-old Dahl rats. The dose of the compound A was 300 μg/kg and the dose of milrinone was 1000 μg/kg (30 examples each).
The cardiac functions were measured with using an ultrasound imaging device under 2% isoflurane anesthesia by a general anesthesia device for an animal before the administration (12 weeks old: grouping value), on the 45th day of the administration and the 91st day of the administration. The hair of the chest area of a rat was removed and the changes in the left ventricular end-diastolic dimension, the left ventricular end-systolic dimension, the end-diastolic left ventricular anterior wall thickness, the end-diastolic left ventricular posterior wall thickness, the end-systolic left ventricular posterior wall thickness and the left ventricular posterior epicardial surface were measured with placing a linear probe on the chest area with M-mode. Further, the left ventricular ejection fraction (LVEF) and the left ventricular diastolic wall strain (DWS) index as the indication of left ventricular diastolic function were calculated.
The general state was observed once or twice a day throughout the experiment period, and dead or alive was confirmed and the general symptoms were recorded.

[3] = Toxicity, repeated oral administration to a dog for four weeks; type: in vivo; conditions: dose up to 30 times the dose showing vasodilation effect on single administration
From the text: Toxicity of the compound used for the agent of present invention is very low, and the compound is safe enough to be used as a medicine.

Structure (SMILES)	Peak Negative dP/dt Change Ratio (%) [1]	left ventricular diastolic / systolic action in a normal dog (normal dog)	survival rate [2]	left ventricular diastolic wall strain (DWS) index [2]	toxicity [3]	PaO2 (arterial oxygen pressure) change ratio ([1]; continuous iv 3, 10 ng/kg/min)	increase of cardiac output ([1]; continuous iv 3, 10 ng/kg/min)	urine volume change ratio ([1]; continuous iv 3, 10 ng/kg/min)	Systemic Vascular Resistance Change Ratio (%) [1]	Peak Positive dP/dt Change Ratio (%) [1]	Left Ventricular End-Diastolic Pressure Change Ratio (%) [1]
CC[C@H](C)[C@@H]1NC(=O)[C@H](CCCNC(=N)N)NC(=O)[C@H](CC(=O)O)NC(=O)[C@H](CCSC)NC(=O)[C@H](CCCNC(=N)N)NC(=O)CNC(=O)CNC(=O)[C@H](Cc2ccccc2)NC(=O)[C@@H](NC(=O)[C@H](CO)NC(=O)[C@H](CO)NC(=O)[C@H](CCCNC(=N)N)NC(=O)[C@H](CCCNC(=N)N)NC(=O)[C@H](CC(C)C)NC(=O)[C@@H](N)CO)CSSC[C@@H](C(=O)N[C@@H](CC(N)=O)C(=O)N[C@@H](CO)C(=O)N[C@@H](Cc2ccccc2)C(=O)N[C@@H](CCCNC(=N)N)C(=O)N[C@@H](Cc2ccc(O)cc2)C(=O)O)NC(=O)CNC(=O)[C@H](CC(C)C)NC(=O)CNC(=O)[C@H](CO)NC(=O)[C@H](CCC(N)=O)NC(=O)[C@H](C)NC(=O)CNC1=O [Carperitide, carperitide]	−6%	–	–	–	–	–	–	–	–	–	–
O=C(O)CCCSCCN1C(=O)CC[C@@H]1/C=C/[C@@H](O)Cc1ccc(F)cc1 [Compound A, 4-[(2-{(2R)-2-[(1E,3S)-4-(4-fluorophenyl)-3-hydroxy-1-buten-1-yl]-5-oxo-1-pyrrolidinyl}ethyl)thio]butanoic acid]	48%	did not show left ventricular diastolic action or left ventricular systolic action	drastically improved the survival rate	remarkably improved DWS	not found to be toxic	111.5%	about 60%	145.4%	−34%	16%	−42%
COCc1cccc(CC(O)/C=C/C2C(O)CC(=O)C2CCSCCCC(=O)OC)c1 (stereo not drawn) [Compound B, (11α,13E,15α)-9-oxo-11,15-dihydroxy-16-(3-methoxymethylphenyl)-17,18,19,20-tetranor-5-tiaprost-13-enoic acid methyl ester]	−3%	–	–	–	–	–	–	–	−43%	−4%	−41%
O=C(O)CCCCCCN1C(=O)CC[C@@H]1CC[C@@H](O)Cc1cccc(C(F)(F)F)c1 [Compound C]	−1%	–	–	–	–	–	–	–	−14%	2%	−37%
O=C(O)CCCSCCN1C(=O)CC[C@@H]1CC[C@@H](O)c1cccc(Oc2cccc(F)c2)c1 [Compound D]	−5%	–	–	–	–	–	–	–	−42%	−9%	−46%
Cc1[nH]c(=O)c(C#N)cc1-c1ccncc1 [Milrinone, milrinone]	23%	showed a strong left ventricular systolic effect	the degree of the improvement of the survival rate was small	did not improve DWS	–	–	–	–	–	38%	–
O=C(NCCO[N+](=O)[O-])c1cccnc1 [Nicorandil, nicorandil]	−7%	–	–	–	–	–	–	–	–	–	–
O=[N+]([O-])OCC(CO[N+](=O)[O-])O[N+](=O)[O-] [Nitroglycerin, nitroglycerin]	−8%	–	–	–	–	–	–	–	–	–	–
